In patent US8173682B2, “Substituted pyridones as inhibitors of poly(ADP-ribose) polymerase (PARP)” (Aventis Pharmaceuticals Inc., priority 2004, dated 2012):
Where a name gives a salt, the structure may show the parent alone.

Molecular target: T1, recombinant human PARP (PARP1) (Homo sapiens, UniProt P09874)
T1 construct: Full length human PARP (PARP1) is assembled from PCR fragments; His6 tag with TEV site, from the pFastBac-HTb vector (own knowledge of the vector); made in house; host or cells: insect cells, baculovirus (Bac-to-Bac, Gibco-BRL)
T1 sequence (P09874 whole entry, the tested form may be a part): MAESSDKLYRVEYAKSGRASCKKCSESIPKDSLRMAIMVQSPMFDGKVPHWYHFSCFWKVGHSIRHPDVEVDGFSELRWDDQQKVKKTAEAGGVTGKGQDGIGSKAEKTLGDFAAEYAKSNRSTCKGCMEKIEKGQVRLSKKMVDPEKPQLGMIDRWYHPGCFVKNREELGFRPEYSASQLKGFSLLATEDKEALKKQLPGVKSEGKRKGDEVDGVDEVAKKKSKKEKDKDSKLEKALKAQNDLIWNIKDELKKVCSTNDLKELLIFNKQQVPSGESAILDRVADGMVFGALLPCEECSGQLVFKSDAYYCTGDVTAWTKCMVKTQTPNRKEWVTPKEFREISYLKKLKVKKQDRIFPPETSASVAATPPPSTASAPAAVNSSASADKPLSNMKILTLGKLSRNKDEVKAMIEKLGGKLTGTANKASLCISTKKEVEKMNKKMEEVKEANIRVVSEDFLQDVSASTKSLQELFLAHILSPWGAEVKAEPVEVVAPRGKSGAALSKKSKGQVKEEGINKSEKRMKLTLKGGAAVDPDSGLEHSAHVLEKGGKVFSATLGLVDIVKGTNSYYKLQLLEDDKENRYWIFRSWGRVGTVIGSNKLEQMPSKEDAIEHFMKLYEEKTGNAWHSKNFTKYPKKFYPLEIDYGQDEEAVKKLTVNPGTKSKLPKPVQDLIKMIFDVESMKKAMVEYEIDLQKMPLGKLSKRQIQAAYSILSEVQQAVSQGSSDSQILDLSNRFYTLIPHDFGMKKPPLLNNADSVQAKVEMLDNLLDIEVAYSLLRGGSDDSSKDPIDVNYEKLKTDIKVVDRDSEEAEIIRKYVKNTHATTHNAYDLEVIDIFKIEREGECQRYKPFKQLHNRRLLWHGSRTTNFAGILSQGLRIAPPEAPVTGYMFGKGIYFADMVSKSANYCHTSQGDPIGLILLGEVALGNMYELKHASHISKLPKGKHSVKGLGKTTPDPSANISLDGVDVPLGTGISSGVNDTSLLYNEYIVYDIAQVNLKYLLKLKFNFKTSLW
Assay: PARP enzyme assay, Method A (radioactivity or 'ELISA' enzyme assay with partially purified enzyme)
Format: biochemical
Conditions: recombinant human PARP preparation, radioactive or ELISA enzyme assay
In short: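 Partially purified recombinant full-length His-tagged human PARP1, baculovirus-expressed. Radioactive format: 100 μg/mL sonicated DNA, 100 μg/mL histones, 100 mM Tris pH 8.0, 10 mM MgCl2, 200 μM labeled NAD, 10 min 37 °C or 60 min RT, TCA-precipitated counts. ELISA format: 250 μM NAD plus biotin-NAD on histone plates, TMB A450.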

IC50 [µM]	Structure (SMILES)
4.5	CCc1cc(-c2ccc(S(=O)(=O)NCCCN(C)C)s2)c(C)[nH]c1=O [Example 34, 5-(5-Ethyl-2-methyl-6-oxo-1,6-dihydropyridin-3-yl)thiophene-2-sulfonic acid (3-dimethylaminopropyl)amide hydrochloride]
1.9	CCc1cc(-c2ccc(S(=O)(=O)NCCCN3CCCC3=O)s2)c(C)[nH]c1=O [Example 68, 5-[5-Ethyl-2-methyl-6-oxo-1,6-dihydropyridin-3-yl]thiophene-2-sulfonic acid [3-(2-oxopyrrolidin-1-yl)propyl]amide]
0.67	CCc1cc(-c2ccc(S(=O)(=O)N3CCC(N4CCCC4)CC3)s2)c(C)[nH]c1=O [Example 66, 3-Ethyl-6-methyl-5-{5-[(4-pyrrolidin-1-yl)piperidine-1-sulfonyl]thiophen-2-yl}-1H-pyridin-2-one hydrochloride]
2.3	CCc1cc(-c2ccc(S(=O)(=O)N3CCN(Cc4ccncc4)CC3)s2)c(C)[nH]c1=O [Example 58, 3-Ethyl-6-methyl-5-[5-(4-pyridin-4-yl)methylpiperizine-1-sulfonyl]thiophen-2-yl}1H-pyridin-2-one dihydrochloride]
0.83	CCc1cc(-c2ccc(CNCc3ccncc3)s2)c(C)[nH]c1=O [Example 152, 3-Ethyl-6-methyl-5-{5-{[(pyridin-4-ylmethyl)-amino]-methyl-thiophen-2-yl)-1H-pyridin-2-one dihydrochloride]
1.5	CCc1cc(-c2ccc(S(=O)(=O)N3CCN(CCN(C)C)CC3)s2)c(C)[nH]c1=O [Example 64, 5-{5-[4-(2-Dimethylaminoethyl)piperazine-1-sulfonyl]thiophen-2-yl}-3-ethyl-6-methyl-1H-pyridn-2-one dihydrochloride]
1.6	CCc1cc(-n2nccn2)c(C)[nH]c1=O [Example 12, 3-Ethyl-6-methyl-5-(1,2,3-triazol-2-yl)-1H-pyridin-2-one]
0.67	CCc1cc(-c2ccc(CN3CCC(O)CC3)s2)c(C)[nH]c1=O [Example 127, 3-Ethyl-5-[5-(4-hydroxy-piperidin-1-ylmethyl)-thiophen-2-yl]-6-methyl-1H-pyridin-2-one hydrochloride]
0.6	CCc1cc(-c2ccc(S(=O)(=O)N3CCN(CCCN4CCCC4)CC3)s2)c(C)[nH]c1=O [Example 62, 3-Ethyl-6-methyl-5-{5-[4-(3-pyrrolidin-1-yl)propylpiperazine-1-sulfonyl]thiophen-2-yl}-1H-pyridin-2-one dihydrochloride]
0.26	CCc1cc(-c2ccc(S(=O)(=O)NCCN3CCCCC3)s2)c(C)[nH]c1=O [Example 69, 5-[5-Ethyl-2-methyl-6-oxo-1,6-dihydropyridin-3-yl]thiophene-2-sulfonic acid (2-piperidin-1-yl)ethylamide hydrochloride]
0.54	CCc1cc(-c2ccc(S(=O)(=O)N(C)C3CCN(C)C3)s2)c(C)[nH]c1=O (stereo not drawn) [Example 81, 5-[5-Ethyl-2-methyl-6-oxo-1,6-dihydropyridin-3-yl]thiophene-2-sulfonic acid methyl (1-methylpyrrolidin-3-yl)amide hydrochloride]
0.15	CCc1cc(-c2ccc(CN)s2)c(C)[nH]c1=O [Example 175, 5-(5-Aminomethylthiophen-2-yl)-3-ethyl-6-methyl-1H-pyridin-2-one hydrochloride]
1	CCc1cc(-c2ccc(CN3CCC(F)(F)C3)s2)c(C)[nH]c1=O [Example 172, 5-{5-[(3,3-Difluoropyrrolidin-1-ylmethyl)(thiophen-2-yl)-3-ethyl-6-methyl-1H-pyridin-2-one hydrochloride]
2.7	CCc1cc(-c2ccc(CN3CCC(c4ccccc4)CC3)s2)c(C)[nH]c1=O [Example 184, 3-Ethyl-6-methyl-5-[5-(4-phenylpiperidin-1-ylmethyl)thiophen-2-yl]-1H-pyridin-2-one hydrochloride]
0.54	CCc1cc(-c2ccc(CNC3CCCCC3)s2)c(C)[nH]c1=O [Example 190, 5-(5-Cyclohexylaminomethylthiophen-2-yl)-3-ethyl-6-methyl-1H-pyridin-2-one hydrochloride]
0.52	CCc1cc(-c2ccc(CNC3CCC3)s2)c(C)[nH]c1=O [Example 137, 5-(5-Cyclobutylaminomethyl-thiophen-2-yl)-3-ethyl-6-methyl-1H-pyridin-2-one hydrochloride]
10.8	CCOC(=O)N1CCN(S(=O)(=O)c2ccc(-c3cc(CC)c(=O)[nH]c3C)s2)CC1 [Example 89, 4-[5-(5-Ethyl-2-methyl-6-oxo-1,6-dihydropyridin-3-yl)thiophene-2-sulfonyl]piperazine-1-carboxylic acid ethyl ester]
1.3	CCc1cc(-c2ccc(CN3CCC(OC)C3)s2)c(C)[nH]c1=O (stereo not drawn) [Example 174, 3-Ethyl-5-{5-[(3-methoxypyrrolidin-1-ylmethyl)(thiophen-2-yl)-6-methyl-1H-pyridin-2-one hydrochloride]
0.63	CCc1cc(-c2ccc(CNCCOC)s2)c(C)[nH]c1=O [Example 138, 3-Ethyl-5-{5-[(2-methoxyethylamino)-methyl]thiophen-2-yl}-6-methyl-1H-pyridin-2-one hydrochloride]
0.72	CCc1cc(-c2ccc(S(=O)(=O)NCCCN(CC)CC)s2)c(C)[nH]c1=O [Example 96, 5-(5-Ethyl-2-methyl-6-oxo-1,6-dihydropyridin-3-yl)-thiophene-2-sulfonic acid (3-diethylaminopropyl)amide hydrochloride]
0.18	CCc1cc(-c2ccc(S(=O)(=O)NCCCN3CCCC3)o2)c(C)[nH]c1=O [Example 49, 5-(5-Ethyl-2-methyl-6-oxo-1,6-dihydropyridin-3-yl)furan-2-sulfonic Acid (3-pyrrolidin-1-yl)propylamide hydrochloride]
0.49	CCc1cc(-c2ccc(CNC(C)C(C)C)s2)c(C)[nH]c1=O (stereo not drawn) [Example 147, 5-{5-[(3-methylbut-2-ylamino)methyl]thiophen-2-yl}-3-ethyl-6-methyl-1H-pyridin-2-one hydrochloride]
2.8	CCc1cc(-c2ccc(CN(C)C3CCN(C)C3)s2)c(C)[nH]c1=O (stereo not drawn) [Example 133, 5-{5-[Methyl(1-methylpyrrolidin-3-yl)amino-methyl]thiophen-2-yl}-3-ethyl-6-methyl-1H-pyridin-2-one dihydrochloride]
1.3	CCc1cc(-c2ccc(S(=O)(=O)N3CCN(CCOCCO)CC3)s2)c(C)[nH]c1=O [Example 99, 3-Ethyl-5-(5-{4-[2-(2-hydroxy-ethoxy)-ethyl]-piperazine-1-sulfonyl}-thiophen-2-yl)-6-methyl-1H-pyridin-2-one hydrochloride]
2.9	CCc1cc(-c2ccc(S(=O)(=O)NCCNc3ccccc3)s2)c(C)[nH]c1=O [Example 32, 5-(5-Ethyl-2-methyl-6-oxo-1,6-dihydropyridin-3-yl)thiophene-2-sulfonic acid 2-phenylaminoethylamide hydrochloride]
0.56	CCc1cc(-c2nnco2)c(C)[nH]c1=O [Example 14, 3-Ethyl-6-methyl-5-(1,3,4-oxadiazol-2-yl)-1H-pyridin-2-one]
1.3	CCc1cc(-c2ccc(CNCc3nccn3C)s2)c(C)[nH]c1=O [Example 161, 3-Ethyl-6-methyl-5-(5-{[(1-methyl-1H-imidazol-2-yl)methyl)amino]methyl}-thiophen-2-yl)-1H-pyridin-2-one dihydrochloride]
